PubChem BioAssay (NCI)
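Five compound concentrations were applied to cells in 96-well plates for 48 hours; endpoints were derived by simple linear interpolation of the resulting dose-response curve. GI50: concentration for 50% inhibition of growth. TGI: concentration producing complete growth inhibition.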

Columns and labels:
Experiment in all cases: NCI anticancer screen, dose series, 48 h
A498 renal = test system: A498 renal
HS 578T breast = test system: HS 578T breast
RXF 393 renal = test system: RXF 393 renal
OVCAR-5 ovarian = test system: OVCAR-5 ovarian
MOLT-4 leukemia = test system: MOLT-4 leukemia
786-0 renal = test system: 786-0 renal
HT29 colon = test system: HT29 colon
RPMI-8226 leukemia = test system: RPMI-8226 leukemia
IGROV1 ovarian = test system: IGROV1 ovarian
NCI-H460 lung = test system: NCI-H460 lung
NCI-H23 lung = test system: NCI-H23 lung
SN12C renal = test system: SN12C renal
TK-10 renal = test system: TK-10 renal
CCRF-CEM leukemia = test system: CCRF-CEM leukemia
K-562 leukemia = test system: K-562 leukemia
SK-MEL-2 melanoma = test system: SK-MEL-2 melanoma
BT-549 breast = test system: BT-549 breast
SK-MEL-5 melanoma = test system: SK-MEL-5 melanoma
SNB-75 CNS = test system: SNB-75 CNS
SR leukemia = test system: SR leukemia
CAKI-1 renal = test system: CAKI-1 renal
MCF7 breast = test system: MCF7 breast
SK-OV-3 ovarian = test system: SK-OV-3 ovarian
MDA-MB-231 breast = test system: MDA-MB-231 breast
SF-268 CNS = test system: SF-268 CNS
UO-31 renal = test system: UO-31 renal
COLO 205 colon = test system: COLO 205 colon
SW-620 colon = test system: SW-620 colon
SF-539 CNS = test system: SF-539 CNS
OVCAR-8 ovarian = test system: OVCAR-8 ovarian
SNB-19 CNS = test system: SNB-19 CNS
HL-60(TB) leukemia = test system: HL-60(TB) leukemia
NCI/ADR-RES ovarian = test system: NCI/ADR-RES ovarian
HOP-92 NSCLC = test system: HOP-92 NSCLC
EKVX NSCLC = test system: EKVX NSCLC
PC-3 prostate = test system: PC-3 prostate
UACC-62 melanoma = test system: UACC-62 melanoma
NCI-H226 lung = test system: NCI-H226 lung
NCI-H522 lung = test system: NCI-H522 lung
HCC-2998 colon = test system: HCC-2998 colon
LOX IMVI melanoma = test system: LOX IMVI melanoma
U251 CNS = test system: U251 CNS
MDA-MB-435 = test system: MDA-MB-435
OVCAR-4 ovarian = test system: OVCAR-4 ovarian
KM12 colon = test system: KM12 colon
MALME-3M melanoma = test system: MALME-3M melanoma
SF-295 CNS = test system: SF-295 CNS
DU-145 prostate = test system: DU-145 prostate
OVCAR-3 ovarian = test system: OVCAR-3 ovarian
SK-MEL-28 melanoma = test system: SK-MEL-28 melanoma
UACC-257 melanoma = test system: UACC-257 melanoma
ACHN renal = test system: ACHN renal
A549 NSCLC = test system: A549 NSCLC
HCT-15 colon = test system: HCT-15 colon
T-47D breast = test system: T-47D breast
M14 melanoma = test system: M14 melanoma
HCT-116 colon = test system: HCT-116 colon
HOP-62 NSCLC = test system: HOP-62 NSCLC

## CC(C)(C)C(=O)Nc1ccccc1I(=O)=O
A498 renal
  GI50: > 100 µM
  TGI: > 100 µM
HS 578T breast
  GI50: > 100 µM
  TGI: > 100 µM
RXF 393 renal
  GI50: > 100 µM
  TGI: > 100 µM
OVCAR-5 ovarian
  GI50: > 100 µM
  TGI: > 100 µM
MOLT-4 leukemia
  GI50: > 100 µM
  TGI: > 100 µM
786-0 renal
  GI50: > 100 µM
  TGI: > 100 µM
HT29 colon
  GI50: > 100 µM
  TGI: > 100 µM
RPMI-8226 leukemia
  GI50: > 100 µM
  TGI: > 100 µM
IGROV1 ovarian
  GI50: > 100 µM
  TGI: > 100 µM
NCI-H460 lung
  GI50: > 100 µM
  TGI: > 100 µM
NCI-H23 lung
  GI50: > 100 µM
  TGI: > 100 µM
SN12C renal
  GI50: > 100 µM
  TGI: > 100 µM
TK-10 renal
  GI50: > 100 µM
  TGI: > 100 µM
CCRF-CEM leukemia
  GI50: > 100 µM
  TGI: > 100 µM
K-562 leukemia
  GI50: > 100 µM
  TGI: > 100 µM
SK-MEL-2 melanoma
  GI50: > 100 µM
  TGI: > 100 µM
BT-549 breast
  GI50: > 100 µM
  TGI: > 100 µM
SK-MEL-5 melanoma
  GI50: > 100 µM
  TGI: > 100 µM
SNB-75 CNS
  GI50: > 100 µM
  TGI: > 100 µM
SR leukemia
  GI50: 26 µM
  TGI: > 100 µM
CAKI-1 renal
  GI50: > 100 µM
  TGI: > 100 µM
MCF7 breast
  GI50: > 100 µM
  TGI: > 100 µM
SK-OV-3 ovarian
  GI50: > 100 µM
  TGI: > 100 µM
MDA-MB-231 breast
  GI50: > 100 µM
  TGI: > 100 µM
SF-268 CNS
  GI50: > 100 µM
  TGI: > 100 µM
UO-31 renal
  GI50: > 100 µM
  TGI: > 100 µM
COLO 205 colon
  GI50: > 100 µM
  TGI: > 100 µM
SW-620 colon
  GI50: > 100 µM
  TGI: > 100 µM
SF-539 CNS
  GI50: > 100 µM
  TGI: > 100 µM
OVCAR-8 ovarian
  GI50: > 100 µM
  TGI: > 100 µM
SNB-19 CNS
  GI50: > 100 µM
  TGI: > 100 µM
HL-60(TB) leukemia
  GI50: > 100 µM
  TGI: > 100 µM
NCI/ADR-RES ovarian
  GI50: > 100 µM
  TGI: > 100 µM
HOP-92 NSCLC
  GI50: > 100 µM
  TGI: > 100 µM
EKVX NSCLC
  GI50: > 100 µM
  TGI: > 100 µM
PC-3 prostate
  GI50: > 100 µM
  TGI: > 100 µM
UACC-62 melanoma
  GI50: > 100 µM
  TGI: > 100 µM
NCI-H226 lung
  GI50: > 100 µM
  TGI: > 100 µM
NCI-H522 lung
  GI50: > 100 µM
  TGI: > 100 µM
HCC-2998 colon
  GI50: > 100 µM
  TGI: > 100 µM
LOX IMVI melanoma
  GI50: > 100 µM
  TGI: > 100 µM
U251 CNS
  GI50: > 100 µM
  TGI: > 100 µM
MDA-MB-435
  GI50: > 100 µM
  TGI: > 100 µM
OVCAR-4 ovarian
  GI50: > 100 µM
  TGI: > 100 µM
KM12 colon
  GI50: > 100 µM
  TGI: > 100 µM
MALME-3M melanoma
  GI50: > 100 µM
  TGI: > 100 µM
SF-295 CNS
  GI50: > 100 µM
  TGI: > 100 µM
DU-145 prostate
  GI50: > 100 µM
  TGI: > 100 µM
OVCAR-3 ovarian
  GI50: > 100 µM
  TGI: > 100 µM
SK-MEL-28 melanoma
  GI50: > 100 µM
  TGI: > 100 µM
UACC-257 melanoma
  GI50: > 100 µM
  TGI: > 100 µM
ACHN renal
  GI50: > 100 µM
  TGI: > 100 µM
A549 NSCLC
  GI50: > 100 µM
  TGI: > 100 µM
HCT-15 colon
  GI50: > 100 µM
  TGI: > 100 µM
T-47D breast
  GI50: > 100 µM
  TGI: > 100 µM

## Cc1cc(C)c(O)c(CNCCCCCCNCc2cc(C)cc(C)c2O)c1
M14 melanoma
  GI50: 1.72 µM
  TGI: 3.59 µM
A498 renal
  GI50: 1.32 µM
  TGI: 3.15 µM
HS 578T breast
  GI50: 1.65 µM
  TGI: 3.88 µM
RXF 393 renal
  GI50: 1.59 µM
  TGI: 3.08 µM
OVCAR-5 ovarian
  GI50: 1.82 µM
  TGI: 4.31 µM
MOLT-4 leukemia
  GI50: 1.72 µM
  TGI: 3.9 µM
HCT-116 colon
  GI50: 1.73 µM
  TGI: 3.43 µM
786-0 renal
  GI50: 1.42 µM
  TGI: 2.92 µM
HT29 colon
  GI50: 1.73 µM
  TGI: 3.82 µM
RPMI-8226 leukemia
  GI50: 1.94 µM
  TGI: 4.96 µM
IGROV1 ovarian
  GI50: 1.68 µM
  TGI: 3.49 µM
NCI-H460 lung
  GI50: 1.89 µM
  TGI: 3.58 µM
NCI-H23 lung
  GI50: 1.7 µM
  TGI: 3.28 µM
SN12C renal
  GI50: 1.83 µM
  TGI: 3.92 µM
TK-10 renal
  GI50: 1.39 µM
  TGI: 2.92 µM
CCRF-CEM leukemia
  GI50: 2.19 µM
  TGI: 5.72 µM
K-562 leukemia
  GI50: 1.61 µM
  TGI: 3.55 µM
SK-MEL-2 melanoma
  GI50: 1.91 µM
  TGI: 3.67 µM
BT-549 breast
  GI50: 2.24 µM
  TGI: 5.52 µM
SK-MEL-5 melanoma
  GI50: 1.61 µM
  TGI: 3.09 µM
SNB-75 CNS
  GI50: 1.33 µM
  TGI: 2.63 µM
SR leukemia
  GI50: 1.34 µM
  TGI: 3.84 µM
CAKI-1 renal
  GI50: 1.97 µM
  TGI: 4.49 µM
MCF7 breast
  GI50: 1.54 µM
  TGI: 3.22 µM
HOP-62 NSCLC
  GI50: 1.77 µM
  TGI: 3.6 µM
SK-OV-3 ovarian
  GI50: 1.83 µM
  TGI: 3.67 µM
MDA-MB-231 breast
  GI50: 1.38 µM
  TGI: 2.9 µM
SF-268 CNS
  GI50: 1.61 µM
  TGI: 3.36 µM
UO-31 renal
  GI50: 1.42 µM
  TGI: 2.83 µM
COLO 205 colon
  GI50: 1.67 µM
  TGI: 3.32 µM
SW-620 colon
  GI50: 1.81 µM
  TGI: 3.56 µM
SF-539 CNS
  GI50: 1.62 µM
  TGI: 3.17 µM
OVCAR-8 ovarian
  GI50: 2.2 µM
  TGI: 5.01 µM
SNB-19 CNS
  GI50: 1.98 µM
  TGI: 4.59 µM
HL-60(TB) leukemia
  GI50: 1.84 µM
  TGI: 3.77 µM
NCI/ADR-RES ovarian
  GI50: 1.85 µM
  TGI: 3.86 µM
HOP-92 NSCLC
  GI50: 1.25 µM
  TGI: 4.01 µM
EKVX NSCLC
  GI50: 1.74 µM
  TGI: 3.65 µM
PC-3 prostate
  GI50: 1.99 µM
  TGI: 4.28 µM
UACC-62 melanoma
  GI50: 1.82 µM
  TGI: 3.41 µM
NCI-H226 lung
  GI50: 1.83 µM
  TGI: 3.72 µM
NCI-H522 lung
  GI50: 1.78 µM
  TGI: 3.67 µM
HCC-2998 colon
  GI50: 1.02 µM
  TGI: 2.39 µM
LOX IMVI melanoma
  GI50: 1.48 µM
  TGI: 2.88 µM
U251 CNS
  GI50: 1.58 µM
  TGI: 3.07 µM
MDA-MB-435
  GI50: 1.43 µM
  TGI: 2.81 µM
OVCAR-4 ovarian
  GI50: 1.51 µM
  TGI: 3.75 µM
KM12 colon
  GI50: 1.82 µM
  TGI: 3.51 µM
MALME-3M melanoma
  GI50: 1.6 µM
  TGI: 3.17 µM
SF-295 CNS
  GI50: 1.78 µM
  TGI: 3.46 µM
DU-145 prostate
  GI50: 1.7 µM
  TGI: 3.3 µM
OVCAR-3 ovarian
  GI50: 1.64 µM
  TGI: 3.42 µM
SK-MEL-28 melanoma
  GI50: 1.66 µM
  TGI: 3.28 µM
UACC-257 melanoma
  GI50: 2.07 µM
  TGI: 4.13 µM
ACHN renal
  GI50: 1.91 µM
  TGI: 3.69 µM
A549 NSCLC
  GI50: 2.23 µM
  TGI: 4.72 µM
HCT-15 colon
  GI50: 1.4 µM
  TGI: 3.05 µM
T-47D breast
  GI50: 1.5 µM
  TGI: 3.36 µM
